# How the values were obtained:
# [1] = test system: Racing dogs, generally greyhounds; experiment: Joint swelling after racing in racing dogs given ribose before the race; type: in vivo, dog
# Description: Racing dogs, generally greyhounds, are also susceptible to swollen joints after racing. […] The observed dosage for a horse was approximately 100 to 300 mg per kilogram body weight. Based on this observation, a greyhound weighing 65 pounds will benefit from a dose of about two to twelve grams of ribose which is approximately 65 to 300 mg per kilogram. The dosage should be given just before each race or hard workout. […] Administration can be by any convenient means. Ribose has a slightly sweet taste and dogs will readily drink a solution of ribose in water. Alternatively, the ribose solution can be sprayed into the dog's mouth for buccal absorption. […] As for horses, the ribose should not be given more than half an hour before the race or with other food or anything else that would delay absorption.
# Humans = experiment: Swollen, sore knee joints in human subjects taking ribose; type: in vivo
# Text: Non-runners can also experience swelling in the joints. One subject who works in construction and does a lot of lifting frequently has swollen knees with accompanying soreness. […] A heavy equipment operator has suffered from soreness in their knees for several years following an injury to the joint. […] The third subject is a competitive “strong man” who competes in such trials as lifting heavy rocks and pulling buses. In the course of their training and competition, they have stressed their knee joints, which are frequently swollen and sore. […] On one occasion, they ingested a dose of 30 grams of ribose and the soreness in their knees disappeared within twenty minutes.
# Standard Bred horses = experiment: Joint swelling after racing in Standard Bred horses given ribose before and/or after each race; type: in vivo, horse
# Text: The dosage given should be adjusted carefully to each animal. It has been observed that the swelling reaction is variable; some horses have a great deal of swelling after each race and others are less affected. […] Beginning with a dose of 20 gm ribose, the dosages were adjusted upward. […] Although the weight of the horse was not a factor, the state of nourishment was important. Less well-nourished horses require less ribose for the prophylaxis and therapy of joint swelling. In those horses tested by Applicant, which had been maintained on the ribose-containing supplement, it was seen that a dosage of about 100 or 200 grams of ribose was required to prevent or reduce swelling. In all mammals it may be seen that increasing doses of ribose are necessary to provide the benefit of this invention. This seeming paradox may be due to the fact that mammals receiving ribose as a maintenance dietary supplement have more energy, run faster and thus sustain more acute exercise-related trauma to the joints. It must be stressed that whether or not horses are maintained on a ribose-containing dietary supplement such as that of Applicant, in order to obtain the benefits of this invention, the dosage and timing disclosed above must be followed. Twelve Standard Bred horses, three to eight years of age, were tested. […] The swelling was treated either with cold packs or rest. Time to recovery was approximately one hour to several days. In general, the horses were rested for three days and then exercised by jogging each day, running two miles and then increasing the miles to six to eight. The test horses were put on a schedule of ribose administration in a dosage of 40 gm before each race. […] Therefore, the standard procedure was to administer the optimal dose of ribose both before and after each race. […] Time to recovery of these animals was about ten hours. […] After the horses had been on ribose maintenance for a time, all required higher doses of ribose, up to 100 gm a dose given both before and after racing, in order to show a benefit.
smiles,measurement,setting,value
"O=C[C@H](O)[C@H](O)[C@H](O)CO [ribose, D-Ribose]",prevention or reduction of joint swelling,[1]; high dose before the race only,adequate in most cases to prevent or reduce joint swelling
same,expected benefit on swollen joints after racing,"[1]; proper dosage of ribose, about two to twelve grams for a 65 pound greyhound",expected to give the same benefit as is shown for horses
same,symptoms of swollen and sore knee joints,"Humans; competitive strong man, doses of five to ten grams",symptoms are lessened
same,time until soreness in knees disappeared,"Humans; competitive strong man, single dose of 30 grams",twenty
same,knee soreness,"Humans; construction worker with swollen knees, dose of about five grams",soreness subsides
same,knee achiness,"Humans; heavy equipment operator, soreness after joint injury, five gram dose",effective to lessen the achiness
same,joint swelling after race,"Standard Bred horses; 40 gm ribose before each race only, twelve horses",most of the animals still showed some joint swelling
same,time to recovery,"Standard Bred horses; animals with moderate swelling despite ribose before and after race, cold packs applied",about ten
same,resumption of training,Standard Bred horses; compared with animals not given ribose before and after racing,able to resume training earlier
same,"benefit on swelling, ribose alone",Standard Bred horses; easily absorbed dose of ribose alone given immediately before and immediately after each race,additional benefit was seen
same,dose required to show a benefit,"Standard Bred horses; horses on ribose maintenance for a time, dose given both before and after racing",up to 100 gm
same,joint swelling after race,Standard Bred horses; optimal dose of ribose both before and after each race,the majority of the animals showed no swelling
same,fraction of animals showing moderate swelling,"Standard Bred horses; optimal dose of ribose both before and after each race, cold packs applied",About one-third
same,side-effects,Standard Bred horses; ribose at suggested levels,no side-effects
same,attitude of the horses after a race (subjective measure),Standard Bred horses; ribose given only before the race,willing to play and move around their stalls

# Source: patent US20040147458A1, “Compositions to reduce exercise-induced swelling of joints” (priority 2003, published 2004)
